# According to patent publication US6905852B1, “Herbicide-resistant protoporphyrinogen oxidase isolated from Nicotiana tabacum” (Nihon Nohyaku Co., Ltd., priority 1997, dated 2005):
# Assays:
# [1] = system: non-transformed tobacco plant; assay: Leaf disk method, bleaching; assay type: cell-based, N. Tabacum var. SR1
# Procedure: From the transformed plant with which the confirmation of introduction of gene was finished, and non-transformed plant used as a control, a leaf almost the same position of the leaf was picked and 9 mm diameter leaf disks were prepared, and floated on a dish in which 0, 125, 250, 1,250, 2,500, 5,000, 12,500 nM of compound A aqueous solution were contained. After incubation at 27° C. for one week under continuous strong light, the bleaching of the leaf disks was observed, and the permissive concentration to compound A was calculated. As a result (Table 7), in case that the tolerant type of protoporphirinogen oxidase cDNA from tobacco was introduced by pBI-NtPX-RC, more than 100 times of tolerance was observed comparing to the control non-transformed plant. However, in case that rsistant type cDNA from Arabidopsis thaliana was introduced by pBI-AtPX-RC, 4 times of resistance was observed comparing to the control, and in case that the wild type cDNA was introduced, high resistance was not observed in each case.
# [2] = target: T1, protoporphyrinogen oxidase extracted from ETR-245 (Nicotiana tabacum, UniProt O24163, A231V); assay: Protoporphyrinogen oxidase activity of crude enzyme preparation; assay type: biochemical
# T1 construct: from tissue; host or cells: tobacco callus, herbicide-tolerant cell line ETR-245; crude particulate fraction
# Procedure: (§1) Using the same procedures described in Nicolaus, B. et al. (1993) in “Target Assay for Modern Herbicide and Related Phytotoxic Compound” Lewis Publishers, pp. 35-41, five volume of extraction buffer (50 mM Tris-HCl (pH 7.5), 0.5 M sucrose, 0.2% BSA, 1 mM EDTA) was added to callus which was cultured in MS solid medium for one month, and homogenized. After filtration with gauze, filtrate was centrifuged with 10,000×g at 4° C. for 5 minutes. Thus obtained precipitate was suspended with 25 ml of ethanol buffer, centrifuged with 150×g at 4° C. for 2 minutes. Thus obtained supernatant was centrifuged with 4,000×g at 4° C. for 15 minutes, and the precipitate was dissolved with 2 ml of 20% glycerol. The protein amount in the obtained crude enzyme preparation was measured with the protein measuring kit (manufactured by Bio-Rad Co., Ltd.).
# (§2) The powder of sodium amalgam was prpared as follows. Into a round flask of 500 ml volume, 13 g of mercury and 0.5 g of thin-layer metal sodium were added, and equilibrated with nitrogen gas for 5 minutes, and it was shaked for 5 minutesthen. […] of protoporphyrin IX was dissolved into 10 mM KOH containing 15 ml of 20% ethanol, incubated at 4° C. To 4 ml of the protoporphyrin IX solution, equal amount of reaction mixture (0.1 M MES, 50 mM ascorbic acid) was added, and 16 mg of sodium amalgam freshly prepared was added, and shaken vigorously under nitrogen gas in a dark. The reaction mixture was filtered with a three-layer glass filter in a dark, and diluted 2.5 times with 0.1 M MES (pH4.5), and divided into 1 ml each in a light-shielded test tube and stored at −80° C.
# (§3) 3 ml of reaction buffer (100 mM Tris-HCl (pH 7.6), 1 mM EDTA, 5 mM DTT, 0.03% Tween 80) were added to a cell of a fluorescence spectrophotometer, then, the crude enzyme prparation was added at the final concentration of 0.1 mg protein/ml, and it was heated gradually to room temperature. After heating, protoporphyrinogen IX was added at the final concentration of 2 μM, and the gaseous phase was replaced with nitrogen gas, and a reaction was started. Fluorescence was monitored with a spectrophotometer for 30 minutes starting 10 minutes after the start of the reaction, and enzyme activity was measured (Ex:405 nm,Em:631.5 nm).
# (§4) Activity of protoporphyrinogen oxidase in crude enzyme preparation which was extracted from a sensitive tobacco and ETR-245 and the extent of inhibition by compound A were compared (Table 4). As a result, activity of the crude enzyme preparation derived from the sensitive strain was 2.39 units, and the activity of the crude enzyme liquid derived from ETR-245 strain was 2.85 units, and there was no large difference between the activities. […] Incidentally, since the reaction mixture became turbidat the concentration of more than 5,000 nM, it was impossible to measure the fluoroescence. From the above results, the resistant mechanism in ETR-245 to the photobleaching herbicide could be thought that the some mutations in the structure of the enzyme occurred, and was not over production of protoporphyrinogen oxidase which was a target enzyme of photobleaching herbicide.
# [3] = target: T2, protoporphyrinogen oxidase extracted from the sensitive cell line (Nicotiana tabacum, UniProt O24163, A174P/A191P/T382S); assay: as above; assay type: biochemical
# T2 construct: from tissue; host or cells: tobacco callus, herbicide-sensitive cell line; crude particulate fraction
# Procedure: as §1, §2, §3, §4
# [4] = target: T3, E. coli SASX38 strain having pBAtPX-RC with Arabidopsis thaliana resistant type protoporphyrinogen oxidase cDNA (Arabidopsis thaliana, UniProt P55826, A220V); assay: Growth inhibition of E. coli SASX38 (liquid culture with shaking); assay type: cell-based
# T3 construct: expressed in transfected cells; host or cells: E. coli SASX38 (hemG-deficient) carrying pBAtPX-RC (pBluescript SK(-))
# Procedure: The E. coli SASX38 strain containing either of the above-described two kinds of plasmid was cultured with shaking in LB liquid medium containing 50 μg/ml of ampicillin at 28° C. for overnight.
# T2 sequence (O24163 51-548 A174P/A191P/T382S): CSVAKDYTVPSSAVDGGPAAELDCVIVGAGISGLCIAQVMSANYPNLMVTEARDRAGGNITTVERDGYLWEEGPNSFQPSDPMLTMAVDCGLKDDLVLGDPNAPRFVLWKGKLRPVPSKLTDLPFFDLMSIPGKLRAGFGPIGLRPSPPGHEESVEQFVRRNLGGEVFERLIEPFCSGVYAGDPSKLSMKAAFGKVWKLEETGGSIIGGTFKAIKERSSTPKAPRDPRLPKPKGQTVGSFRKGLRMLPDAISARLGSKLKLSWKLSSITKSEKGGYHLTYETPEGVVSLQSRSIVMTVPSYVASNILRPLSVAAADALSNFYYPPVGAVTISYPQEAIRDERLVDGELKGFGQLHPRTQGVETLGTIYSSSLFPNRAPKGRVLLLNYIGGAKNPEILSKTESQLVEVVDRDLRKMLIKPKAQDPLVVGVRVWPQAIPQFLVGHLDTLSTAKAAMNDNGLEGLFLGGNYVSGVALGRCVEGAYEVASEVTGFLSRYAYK
# T1 sequence (O24163 51-548 A231V): as the sequence (O24163 51-548 A174P/A191P/T382S) above, with P124A, P141A, A181V, S332T counted along it
# T3 sequence (P55826 35-537 A220V): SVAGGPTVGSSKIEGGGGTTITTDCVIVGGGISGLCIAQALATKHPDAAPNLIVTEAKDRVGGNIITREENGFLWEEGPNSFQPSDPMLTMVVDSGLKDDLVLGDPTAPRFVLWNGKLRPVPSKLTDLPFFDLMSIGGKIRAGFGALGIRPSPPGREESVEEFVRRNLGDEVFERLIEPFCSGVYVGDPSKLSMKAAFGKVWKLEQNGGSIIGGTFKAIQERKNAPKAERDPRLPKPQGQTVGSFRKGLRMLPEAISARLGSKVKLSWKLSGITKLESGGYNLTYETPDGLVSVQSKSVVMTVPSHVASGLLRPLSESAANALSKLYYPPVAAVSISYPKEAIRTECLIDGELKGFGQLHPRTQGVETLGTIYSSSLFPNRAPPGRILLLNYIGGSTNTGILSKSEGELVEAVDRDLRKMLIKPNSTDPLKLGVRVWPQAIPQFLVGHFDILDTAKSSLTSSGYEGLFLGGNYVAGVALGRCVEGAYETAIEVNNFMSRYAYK
smiles,measurement,setting,value
"CCOC(=O)COc1cc(-c2nn(C)c(OC(F)F)c2Cl)c(F)cc1Cl [Compound A, ethyl 2-chloro-5-(4-chloro-5-difluoromethoxy-1-methyl-1H-pyrazol-3-yl)-4-fluorophenoxyacetate]",Resistance,[1]; Introduced gene: None (reference),1 X
same,Permission conc. to compound A,"[1]; Introduced gene: None, one week, continuous strong light",125 nM
same,Enzyme activity(unit),"[2]; ETR-245, 10 nM, 1 unit = 1 nM protoporphyrin IX/min/mg protein",3.59 unit
same,Enzyme activity(unit),"[2]; ETR-245, 40 nM",4.41 unit
same,Enzyme activity(unit),"[2]; ETR-245, 100 nM",2.21 unit
same,Enzyme activity(unit),"[2]; ETR-245, 500 nM",3.49 unit
same,Enzyme activity(unit),"[2]; ETR-245, 1,000 nM",2.85 unit
same,Enzyme activity(unit),"[2]; ETR-245, 2,400 nM",2.48 unit
same,Enzyme activity(unit),"[2]; ETR-245, 5,000 nM",1.56 unit
same,IC50,"[2]; IC50 value (nM), crude enzyme from ETR-245",≥ 5000 nM
same,resistance at enzyme level (ETR-245 vs sensitive),[2]; ratio of IC50 values,more than 100 times
same,IC50,[3],48 nM
same,Enzyme activity(unit),"[3]; Sensitive, 10 nM, 1 unit = 1 nM protoporphyrin IX/min/mg protein",4.32 unit
same,Enzyme activity(unit),"[3]; Sensitive, 20 nM",3.62 unit
same,Enzyme activity(unit),"[3]; Sensitive, 40 nM",1.84 unit
same,Enzyme activity(unit),"[3]; Sensitive, 100 nM",0.00 unit
same,Enzyme activity(unit),"[3]; Sensitive, 500 nM",0.00 unit
same,Enzyme activity(unit),"[3]; Sensitive, 1,000 nM",0.00 unit
same,Enzyme activity(unit),"[3]; Sensitive, 2,400 nM",0.00 unit
same,Enzyme activity(unit),"[3]; Sensitive, 5,000 nM",0.00 unit
same,IC50,[4],1500 nM
same,R/S ratio (IC50 value of the resistant type/IC50 value of the wild type),[4]; Arabidopsis thaliana,about 300
